Measured values reported in patent US8394801B2, “Quinoxaline derivatives and their use for treating benign and malignant tumour disorders” (Aeterna Zentaris GmbH, priority 2009, dated 2013).

What was measured:
NCI-H460 = experiment: Proliferation assay (Alamar Blue / XTT), NCI-H460; assay type: cell-based; details: Homo sapiens; cell line NCI-H460 (lung)
SKOV-3 = experiment: Proliferation assay (Alamar Blue / XTT), SKOV-3; assay type: cell-based; details: Homo sapiens, SK-OV-3; cell line SKOV-3 (ovaries)
HCT116 = experiment: Proliferation assay (Alamar Blue / XTT), HCT116; assay type: cell-based; details: Homo sapiens; cell line HCT-116 (colon)
MDA MB468 = experiment: Proliferation assay (Alamar Blue / XTT), MDA MB468; assay type: cell-based; details: Homo sapiens, MDA-MB-468; cell line MDA-MB468 (breast)
PC-3 = experiment: Proliferation assay (Alamar Blue / XTT), PC-3; assay type: cell-based; details: Homo sapiens, cell line PC3 (prostate)
A549 = experiment: Proliferation assay (Alamar Blue / XTT), A549; assay type: cell-based; details: Homo sapiens; cell line A549 (lung)
U87MG = experiment: Proliferation assay (Alamar Blue / XTT), U87MG; assay type: cell-based; details: Homo sapiens, U-87 MG; cell line U87MG (glioma)
RKOP27 = experiment: Proliferation assay (Alamar Blue / XTT), RKOP27; assay type: cell-based; details: Homo sapiens; cell line RKOp27 (colon)
A2780 = experiment: XTT proliferation test, A2780; assay type: cell-based; details: Homo sapiens, cell line A2780 (ovary), non-resistant
From the text: (§1) For further characterization, the substances according to the invention were examined in resistant tumour cell lines compared to non-resistant wild-type tumour cell lines.
(§2) The cell lines examined are the cell line A2780 (ovary), the cis-platin-resistant cell line A2780 (ovary), the cell line L1210 (leukaemia), the vincristine-resistant cell line L1210 (leukaemia), the cell line MESSA (uterus), the doxorubicin-resistant cell line MESSA Dx5 (uterus), the cell line NCIH69 (lung) and the multi-drug-resistant cell line NCIH69 AR (lung).

A2780 cis-Pt = experiment: XTT proliferation test, cis-platin-resistant A2780; assay type: cell-based; details: Homo sapiens, cis-platin-resistant cell line A2780 (ovary)
From the text: as §1, §2

L1210 = experiment: XTT proliferation test, L1210; assay type: cell-based; details: Mus musculus, cell line L1210 (leukaemia), non-resistant
From the text: as §1, §2

L1210 VCR = experiment: XTT proliferation test, vincristine-resistant L1210; assay type: cell-based; details: Mus musculus, vincristine-resistant cell line L1210 (leukaemia)
From the text: as §1, §2

MESSA = experiment: XTT proliferation test, MESSA; assay type: cell-based; details: Homo sapiens, MES-SA, cell line MESSA (uterus), non-resistant
From the text: as §1, §2

MESSA DX5 = experiment: XTT proliferation test, doxorubicin-resistant MESSA Dx5; assay type: cell-based; details: Homo sapiens, MES-SA/Dx5, doxorubicin-resistant cell line MESSA Dx5 (uterus)
From the text: as §1, §2

NCI H69 = experiment: XTT proliferation test, NCI H69; assay type: cell-based; details: Homo sapiens, cell line NCIH69 (lung), non-resistant
From the text: as §1, §2

NCI H69 AR = experiment: XTT proliferation test, multi-drug-resistant NCI H69 AR; assay type: cell-based; details: Homo sapiens, NCI-H69AR, multi-drug-resistant cell line NCIH69 AR (lung)
From the text: as §1, §2

## Cc1cc(-c2ccc3ncc(NC(=O)NC(C)(C)C)nc3c2)cc(C)c1O [Compound 9, 1-tert-Butyl-3-[7-(4-hydroxy-3,5-dimethylphenyl)quinoxalin-2-yl]urea]
NCI-H460
  EC50: 238 nM
SKOV-3
  EC50: 248 nM
HCT116
  EC50: 229 nM
MDA MB468
  EC50: 263 nM
PC-3
  EC50: 112 nM
A549
  EC50: 289 nM
U87MG
  EC50: 181 nM
RKOP27
  EC50: 176 nM

## Cc1cc(-c2ccc3ncc(NC(=O)NC4CCCCC4)nc3c2)cc(C)c1O [Compound 12, 1-Cyclohexyl-3-[7-(4-hydroxy-3,5-dimethylphenyl)quinoxalin-2-yl]urea]
NCI-H460
  EC50: 85 nM
SKOV-3
  EC50: 67 nM
HCT116
  EC50: 42 nM
MDA MB468
  EC50: 125 nM
PC-3
  EC50: 51 nM
A549
  EC50: 76 nM
U87MG
  EC50: 77 nM

## Cc1cc(-c2ccc3ncc(NC(=O)Nc4cccs4)nc3c2)cc(C)c1O [Compound 15, 1-[7-(4-Hydroxy-3,5-dimethylphenyl)quinoxalin-2-yl]-3-thiophen-2-ylurea]
NCI-H460
  EC50: 714 nM
SKOV-3
  EC50: 1810 nM
HCT116
  EC50: 475 nM
MDA MB468
  EC50: 835 nM
PC-3
  EC50: 309 nM
A549
  EC50: 836 nM
U87MG
  EC50: 1340 nM

## CCCCNC(=O)Nc1cnc2ccc(-c3cc(C)c(O)c(C)c3)cc2n1 [Compound 18, 1-Butyl-3-[7-(4-hydroxy-3,5-dimethylphenyl)quinoxalin-2-yl]urea]
NCI-H460
  EC50: 38 nM
SKOV-3
  EC50: 32 nM
HCT116
  EC50: 21 nM
MDA MB468
  EC50: 30 nM
PC-3
  EC50: 16 nM
A549
  EC50: 46 nM
U87MG
  EC50: 8 nM
other
  melting point: 276 to 280 °C

## CCNC(=S)Nc1cnc2ccc(-c3cc(C)c(O)c(C)c3)cc2n1 [Compound 22, 1-Ethyl-3-[7-(4-hydroxy-3,5-dimethylphenyl)quinoxalin-2-yl]thiourea]
NCI-H460
  EC50: 27 nM
SKOV-3
  EC50: 30 nM
HCT116
  EC50: 7 nM
MDA MB468
  EC50: 53 nM
PC-3
  EC50: 11 nM
A549
  EC50: 8 nM
U87MG
  EC50: 2 nM
RKOP27
  EC50: 28 nM
A2780
  EC50: 18 nM
A2780 cis-Pt
  EC50: 14 nM
L1210
  EC50: 15 nM
L1210 VCR
  EC50: 19 nM
MESSA
  EC50: 141 nM
MESSA DX5
  EC50: 38 nM
NCI H69
  EC50: 10 nM
NCI H69 AR
  EC50: 8 nM
other
  melting point: 243 to 244 °C

## Cc1cc(-c2ccc3ncc(NC(=S)NC4CC4)nc3c2)cc(C)c1O [Compound 23, 1-Cyclopropyl-3-[7-(4-hydroxy-3,5-dimethylphenyl)quinoxalin-2-yl]-thiourea]
NCI-H460
  EC50: 21 nM
SKOV-3
  EC50: 16 nM
HCT116
  EC50: 3 nM
MDA MB468
  EC50: 148 nM
PC-3
  EC50: 3 nM
A549
  EC50: 9 nM
U87MG
  EC50: 2 nM
RKOP27
  EC50: 20 nM
A2780
  EC50: 22 nM
A2780 cis-Pt
  EC50: 19 nM
L1210
  EC50: 5 nM
L1210 VCR
  EC50: 4 nM
MESSA
  EC50: 48 nM
MESSA DX5
  EC50: 16 nM
NCI H69
  EC50: 4 nM
NCI H69 AR
  EC50: 0.8 nM
other
  melting point: 274 to 276 °C

## Cc1cc(-c2ccc3ncc(NC(=S)NC(C)C)nc3c2)cc(C)c1O [Compound 31, 1-[7-(4-Hydroxy-3,5-dimethylphenyl)quinoxalin-2-yl]-3-isopropylthiourea]
NCI-H460
  EC50: 60 nM
SKOV-3
  EC50: 45 nM
HCT116
  EC50: 30 nM
MDA MB468
  EC50: 25 nM
PC-3
  EC50: 15 nM
A549
  EC50: 23 nM
U87MG
  EC50: 13 nM
other
  melting point: 269 to 271 °C

## CCCCNC(=S)Nc1cnc2ccc(-c3cc(C)c(O)c(C)c3)cc2n1 [Compound 32, 1-Butyl-3-[7-(4-hydroxy-3,5-dimethylphenyl)quinoxalin-2-yl]thiourea]
NCI-H460
  EC50: 30 nM
SKOV-3
  EC50: 27 nM
HCT116
  EC50: 16 nM
MDA MB468
  EC50: 20 nM
PC-3
  EC50: 9 nM
A549
  EC50: 9 nM
U87MG
  EC50: 3 nM
other
  melting point: 278 to 280 °C

## Cc1cc(-c2ccc3ncc(NC(=S)NC4CCC4)nc3c2)cc(C)c1O [Compound 34, 1-Cyclobutyl-3-[7-(4-hydroxy-3,5-dimethylphenyl)quinoxalin-2-yl]-thiourea]
NCI-H460
  EC50: 52 nM
SKOV-3
  EC50: 50 nM
HCT116
  EC50: 36 nM
MDA MB468
  EC50: 30 nM
PC-3
  EC50: 12 nM
A549
  EC50: 16 nM
U87MG
  EC50: 224 nM
RKOP27
  EC50: 58 nM
other
  melting point: 285 to 286 °C

## CCCNC(=O)Nc1cnc2ccc(-c3cc(C)c(O)c(C)c3)cc2n1 [Compound 36, 1-[7-(4-Hydroxy-3,5-dimethylphenyl)quinoxalin-2-yl]-3-propylurea]
NCI-H460
  EC50: 64 nM
SKOV-3
  EC50: 42 nM
HCT116
  EC50: 43 nM
MDA MB468
  EC50: 43 nM
PC-3
  EC50: 9 nM
A549
  EC50: 34 nM
U87MG
  EC50: 111 nM
other
  melting point: 276 to 277 °C

## C=CCNC(=O)Nc1cnc2ccc(-c3cc(C)c(O)c(C)c3)cc2n1 [Compound 41, 1-Allyl-3-[7-(4-hydroxy-3,5-dimethylphenyl)quinoxalin-2-yl]urea]
NCI-H460
  EC50: 218 nM
HCT116
  EC50: 91 nM
MDA MB468
  EC50: 131 nM
PC-3
  EC50: 76 nM
A549
  EC50: 217 nM
U87MG
  EC50: 105 nM

## Oc1c(Cl)cc(-c2ccc3ncc(NC(=S)NC4CCC4)nc3c2)cc1Cl [Compound 80, 1-Cyclobutyl-3-[7-(3,5-dichloro-4-hydroxy-phenyl)-quinoxalin-2-yl]-thiourea]
HCT116
  EC50: 1710 nM
MDA MB468
  EC50: 672 nM
PC-3
  EC50: 1190 nM
A549
  EC50: 2040 nM
U87MG
  EC50: 2000 nM
other
  melting point: 277 to 280 °C

## Oc1c(Cl)cc(-c2ccc3ncc(NC(=S)NC4CC4)nc3c2)cc1Cl [Compound 83, 1-Cyclopropyl-3-[7-(3,5-dichloro-4-hydroxy-phenyl)-quinoxalin-2-yl]-thiourea]
HCT116
  EC50: 2090 nM
MDA MB468
  EC50: 1050 nM
PC-3
  EC50: 955 nM
A549
  EC50: 2290 nM
U87MG
  EC50: 1970 nM
other
  melting point: 260 to 262 °C

## CCCCNC(=S)Nc1cnc2ccc(-c3cc(Cl)c(O)c(Cl)c3)cc2n1 [Compound 87, 1-Butyl-3-[7-(3,5-dichloro-4-hydroxy-phenyl)-quinoxalin-2-yl]thiourea]
HCT116
  EC50: 1090 nM
MDA MB468
  EC50: 464 nM
PC-3
  EC50: 790 nM
A549
  EC50: 1530 nM
U87MG
  EC50: 2490 nM
other
  melting point: 226 to 227 °C

## CCCCCNC(=S)Nc1cnc2ccc(-c3cc(Cl)c(O)c(Cl)c3)cc2n1 [Compound 90, 1-[7-(3,5-Dichloro-4-hydroxy-phenyl)-quinoxalin-2-yl]-3-pentyl-thiourea]
HCT116
  EC50: 1010 nM
MDA MB468
  EC50: 318 nM
PC-3
  EC50: 556 nM
A549
  EC50: 1090 nM
U87MG
  EC50: 1230 nM
other
  melting point: 237 to 238 °C

## Oc1c(Cl)cc(-c2ccc3ncc(NC(=S)NC4CCCCCCC4)nc3c2)cc1Cl [Compound 93, 1-Cyclooctyl-3-[7-(3,5-dichloro-4-hydroxy-phenyl)-quinoxalin-2-yl]-thiourea]
HCT116
  EC50: 409 nM
MDA MB468
  EC50: 193 nM
PC-3
  EC50: 334 nM
A549
  EC50: 1030 nM
U87MG
  EC50: 1800 nM
other
  melting point: 288 to 289 °C

## Oc1c(Cl)cc(-c2ccc3ncc(NC(=S)NCc4ccccc4)nc3c2)cc1Cl [Compound 94, 1-Benzyl-3-[7-(3,5-dichloro-4-hydroxy-phenyl)-quinoxalin-2-yl]-thiourea]
HCT116
  EC50: 586 nM
MDA MB468
  EC50: 169 nM
PC-3
  EC50: 821 nM
A549
  EC50: 891 nM
U87MG
  EC50: 2080 nM
other
  melting point: 275 to 277 °C

## Oc1c(Cl)cc(-c2ccc3ncc(NC(=S)NCCCc4ccccc4)nc3c2)cc1Cl [Compound 96, 1-[7-(3,5-Dichloro-4-hydroxy-phenyl)-quinoxalin-2-yl]-3-(3-phenyl-propyl)-thiourea]
HCT116
  EC50: 1540 nM
MDA MB468
  EC50: 1040 nM
PC-3
  EC50: 1650 nM
A549
  EC50: 1820 nM
U87MG
  EC50: 2350 nM
other
  melting point: 248 to 250 °C

## Oc1c(Cl)cc(-c2ccc3ncc(NC(=S)NCCc4ccccc4)nc3c2)cc1Cl [Compound 97, 1-[7-(3,5-Dichloro-4-hydroxy-phenyl)-quinoxalin-2-yl]-3-phenethyl-thiourea]
HCT116
  EC50: 700 nM
MDA MB468
  EC50: 568 nM
PC-3
  EC50: 538 nM
A549
  EC50: 1510 nM
U87MG
  EC50: 1820 nM
other
  melting point: 282 to 285 °C
